Series [1] is described as follows: Selectivity ratio of IC50 for CDK2/CyclinE1 (unknown origin) to IC50 for CDK8/Cyclin C (unknown origin).
Series [2] is described as follows: Selectivity ratio of IC50 for CDK7/CyclinH/MAT1 (unknown origin) to IC50 for CDK8/Cyclin C (unknown origin).
Series [3] is described as follows: Cmax in mouse at 5 mg/kg, po measured upto 24 hrs by LC-MS/MS analysis. It counts as ADME, organism-based. The note with it: in vivo.
The nature of series [4]: Tmax in mouse at 5 mg/kg, po measured upto 24 hrs by LC-MS/MS analysis. It counts as ADME, organism-based. The note with it: in vivo.
A short description of series [5]: Cmax in dog at 3 mg/kg, po measured upto 24 hrs by LC-MS/MS analysis. It counts as ADME, organism-based, Canis lupus familiaris. The note with it: in vivo.
The test system of series [6] is Mus musculus. The series can be described thus: In vivo inhibition of STAT3 phosphorylation in BALB/c nude mouse tumor xenografted with human MV4-11 cells at 60 mg/kg, po qd for 3 weeks and measured 8 to 24 hrs post last dose. Format: functional, organism-based. The note with it: time 22.0 day. In general terms: In xenograft studies the graft and the host belong to different species.

Series [7] can be described thus: Dose normalized AUC in dog at 3 mg/kg, po measured upto 24 hrs by LC-MS/MS analysis. It counts as ADME, organism-based, Canis lupus familiaris. The note with it: in vivo.
Series [8] in a line: AUC(0 to 24 hrs) in mouse at 5 mg/kg, po measured upto 24 hrs by LC-MS/MS analysis. Format: ADME, organism-based. The note with it: in vivo.
Series [9] in a line: Selectivity ratio of IC50 for CDK5/p35NCK (unknown origin) to IC50 for CDK8/Cyclin C (unknown origin).
A short description of series [10]: Selectivity ratio of IC50 for CDK5/p25NCK (unknown origin) to IC50 for CDK8/Cyclin C (unknown origin).
The species entered for series [11] is Homo sapiens. Kind of series: Inhibition of CDK1/CyclinA2 (unknown origin) at 1 uM by luminescence based assay relative to control.
For series [12], the target named is Cyclin-dependent kinase 13/Cyclin-K (Homo sapiens) (UniProt Q14004+O75909). The series can be described thus: Inhibition of CDK13/cyclinK (unknown origin) at 1 uM by luminescence based assay relative to control. It counts as protein-complex assay.
The test system of series [13] is MV4-11. Kind of series: Potency index, ratio of RVU120 IC50 to test compound IC50 for antiproliferative activity against human MV4-11 cells. It counts as functional.
The nature of series [14]: Oral bioavailability in mouse at 30 mg/kg measured upto 24 hrs by LC-MS/MS analysis. Conditions: in vivo. Format: ADME, organism-based.
Series [15] concerns the target CDK9/cyclin T1 (Homo sapiens) (UniProt O60563+P50750). Kind of series: Inhibition of CDK9/cyclinT1 (unknown origin) at 1 uM by luminescence based assay relative to control. Format: protein-complex assay.
The test system of series [16] is MDA-MB-468. The series can be described thus: Antitumor activity against human MDA-MB-468 cells xenografted in BALB/c nude mouse assessed as tumor growth inhibition at 3 mg/kg, po qd and measured twice a week for 3 weeks. It counts as functional, organism-based.
Series [17] addresses Signal transducer and activator of transcription 1-alpha/beta (Homo sapiens) (UniProt P42224). The series can be described thus: Induction of STAT1 (unknown origin) phosphorylation at Ser727 residues by Western blotting analysis. Conditions: filed as activator, dose 0.0032-10 µM. In general terms: A western blot detects proteins with antibodies after separation by electrophoresis.

A short description of series [18]: Dose normalized AUC in mouse at 30 mg/kg, po measured upto 24 hrs by LC-MS/MS analysis. Format: ADME, organism-based. The note with it: in vivo.
The test system of series [19] is MDA-MB-468. The series can be described thus: Synergistic antitumor activity against human MDA-MB-468 cells xenografted in BALB/c nude mouse assessed as tumor growth inhibition at 3 mg/kg, ip qd and measured twice a week for 3 weeks in presence of carboplatin. It counts as functional. Conditions: MDA-MB-468, 504 h, read-out: TGI.
Series [20] in a line: Dose normalized AUC in rat at 10 mg/kg, po measured upto 24 hrs by LC-MS/MS analysis. Format: ADME, organism-based. Conditions: in vivo.
Series [21] is described as follows: Tmax in dog at 5 mg/kg, po measured upto 24 hrs by LC-MS/MS analysis. Format: ADME, organism-based, Canis lupus familiaris. The note with it: in vivo.
Series [22] addresses CDK12/Cyclin K (Homo sapiens) (UniProt O75909+Q9NYV4). The series can be described thus: Inhibition of CDK12/cyclinK (unknown origin) at 1 uM by luminescence based assay relative to control. It counts as protein-complex assay.
For series [23], the target named is CDK4/Cyclin D3 (Homo sapiens) (UniProt P11802+P30281). Kind of series: Inhibition of CDK4/cyclinD3 (unknown origin) at 1 uM by luminescence based assay relative to control. It counts as protein-complex assay.
Series [24] in a line: Cmax in mouse at 30 mg/kg, po measured upto 24 hrs by LC-MS/MS analysis. It counts as ADME, organism-based. Conditions: in vivo.
Series [25] deals with MV4-11. The series can be described thus: Antitumor activity against human MV4-11 cells xenografted in po dosed BALB/c nude mouse assessed as tumor growth inhibition measured twice a week for 3 weeks. It counts as functional, organism-based. Conditions: dose 3-10 mg/kg.
For series [26], the target named is CDK6/cyclin D3 (Homo sapiens) (UniProt P30281+Q00534). Kind of series: Inhibition of CDK6/cyclinD3 (unknown origin) at 1 uM by luminescence based assay relative to control. It counts as protein-complex assay.
The target in series [27] is Cyclin-dependent kinase 2/cyclin E1 (Homo sapiens) (UniProt P24864+P24941). The series can be described thus: Inhibition of CDK2/Cyclin E1 (unknown origin) at 1 uM by luminescence based assay relative to control. It counts as protein-complex assay.
The nature of series [28]: Cmax in monkey at 5 mg/kg, po measured upto 24 hrs by LC-MS/MS analysis. Format: ADME, organism-based, Macaca mulatta. The note with it: rhesus monkey, in vivo.
Series [29] concerns Z-138. The series can be described thus: Synergistic antitumor activity against human Z138 cells xenografted in CB17 SCID mouse assessed as tumor growth inhibition at 2.5 to 5 mg/kg, po administered once daily for 21 days in presence of rituximab. Format: functional. Conditions: dose 2.5-5 mg/kg, time 21 day.
In series [30] the target is CDK7/Cyclin H/MNAT1 (Homo sapiens) (UniProt P51946+P50613+P51948). Kind of series: Inhibition of CDK7/cyclinH/MAT1 (unknown origin) at 1 uM by luminescence based assay relative to control. Format: protein-complex assay.
Series [31] is described as follows: Toxicity in CB17 SCID mouse xenografted with human Z138 cells assessed as change in body weight at 2.5 to 5 mg/kg, po qd for 3 weeks in presence of rituximab. It counts as organism-based. Conditions: in vivo, 504 h, dose 2.5-5 mg/kg.

Active and inactive are the calls of the source. The calls are words filed in the database; no cut-off is given here.

Sequence of Signal transducer and activator of transcription 1-alpha/beta (Homo sapiens) (P42224 whole entry): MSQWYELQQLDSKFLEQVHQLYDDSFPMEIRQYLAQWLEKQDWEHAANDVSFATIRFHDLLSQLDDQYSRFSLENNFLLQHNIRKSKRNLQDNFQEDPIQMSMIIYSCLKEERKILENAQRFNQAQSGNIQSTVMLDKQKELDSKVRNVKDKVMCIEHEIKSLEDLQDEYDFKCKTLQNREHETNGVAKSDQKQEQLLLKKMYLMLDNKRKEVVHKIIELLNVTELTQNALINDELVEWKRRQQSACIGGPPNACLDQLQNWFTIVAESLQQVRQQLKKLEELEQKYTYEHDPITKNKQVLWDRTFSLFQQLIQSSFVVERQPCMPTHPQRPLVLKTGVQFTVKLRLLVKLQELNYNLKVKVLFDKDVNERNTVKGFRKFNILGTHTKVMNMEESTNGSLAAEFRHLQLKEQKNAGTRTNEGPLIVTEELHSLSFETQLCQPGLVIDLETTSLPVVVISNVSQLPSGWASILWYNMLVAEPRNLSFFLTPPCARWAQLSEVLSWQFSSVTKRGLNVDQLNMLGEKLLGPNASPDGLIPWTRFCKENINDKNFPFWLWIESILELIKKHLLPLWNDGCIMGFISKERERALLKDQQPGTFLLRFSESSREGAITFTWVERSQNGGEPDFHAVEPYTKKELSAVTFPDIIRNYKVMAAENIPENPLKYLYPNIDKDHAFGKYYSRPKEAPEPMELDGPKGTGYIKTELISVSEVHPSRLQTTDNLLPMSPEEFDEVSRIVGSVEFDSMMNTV
Sequence of CDK12/Cyclin K (Homo sapiens) (O75909 whole entry, looked up): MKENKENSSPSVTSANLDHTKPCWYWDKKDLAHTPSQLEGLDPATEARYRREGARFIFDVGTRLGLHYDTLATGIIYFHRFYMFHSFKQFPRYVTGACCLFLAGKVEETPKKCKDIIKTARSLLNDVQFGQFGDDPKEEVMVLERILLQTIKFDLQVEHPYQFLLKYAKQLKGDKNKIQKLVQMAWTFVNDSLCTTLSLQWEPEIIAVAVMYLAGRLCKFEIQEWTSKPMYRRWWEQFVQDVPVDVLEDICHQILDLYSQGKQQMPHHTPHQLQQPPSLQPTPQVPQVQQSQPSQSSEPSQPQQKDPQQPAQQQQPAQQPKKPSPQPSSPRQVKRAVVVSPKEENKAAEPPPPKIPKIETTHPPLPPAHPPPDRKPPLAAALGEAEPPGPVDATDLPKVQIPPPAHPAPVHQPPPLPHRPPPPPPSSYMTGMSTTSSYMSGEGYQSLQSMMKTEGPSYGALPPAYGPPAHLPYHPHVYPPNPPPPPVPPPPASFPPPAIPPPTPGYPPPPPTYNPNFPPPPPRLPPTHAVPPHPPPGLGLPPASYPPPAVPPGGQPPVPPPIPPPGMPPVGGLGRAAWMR
Sequence of CDK12/Cyclin K (Homo sapiens) (Q9NYV4 whole entry, looked up): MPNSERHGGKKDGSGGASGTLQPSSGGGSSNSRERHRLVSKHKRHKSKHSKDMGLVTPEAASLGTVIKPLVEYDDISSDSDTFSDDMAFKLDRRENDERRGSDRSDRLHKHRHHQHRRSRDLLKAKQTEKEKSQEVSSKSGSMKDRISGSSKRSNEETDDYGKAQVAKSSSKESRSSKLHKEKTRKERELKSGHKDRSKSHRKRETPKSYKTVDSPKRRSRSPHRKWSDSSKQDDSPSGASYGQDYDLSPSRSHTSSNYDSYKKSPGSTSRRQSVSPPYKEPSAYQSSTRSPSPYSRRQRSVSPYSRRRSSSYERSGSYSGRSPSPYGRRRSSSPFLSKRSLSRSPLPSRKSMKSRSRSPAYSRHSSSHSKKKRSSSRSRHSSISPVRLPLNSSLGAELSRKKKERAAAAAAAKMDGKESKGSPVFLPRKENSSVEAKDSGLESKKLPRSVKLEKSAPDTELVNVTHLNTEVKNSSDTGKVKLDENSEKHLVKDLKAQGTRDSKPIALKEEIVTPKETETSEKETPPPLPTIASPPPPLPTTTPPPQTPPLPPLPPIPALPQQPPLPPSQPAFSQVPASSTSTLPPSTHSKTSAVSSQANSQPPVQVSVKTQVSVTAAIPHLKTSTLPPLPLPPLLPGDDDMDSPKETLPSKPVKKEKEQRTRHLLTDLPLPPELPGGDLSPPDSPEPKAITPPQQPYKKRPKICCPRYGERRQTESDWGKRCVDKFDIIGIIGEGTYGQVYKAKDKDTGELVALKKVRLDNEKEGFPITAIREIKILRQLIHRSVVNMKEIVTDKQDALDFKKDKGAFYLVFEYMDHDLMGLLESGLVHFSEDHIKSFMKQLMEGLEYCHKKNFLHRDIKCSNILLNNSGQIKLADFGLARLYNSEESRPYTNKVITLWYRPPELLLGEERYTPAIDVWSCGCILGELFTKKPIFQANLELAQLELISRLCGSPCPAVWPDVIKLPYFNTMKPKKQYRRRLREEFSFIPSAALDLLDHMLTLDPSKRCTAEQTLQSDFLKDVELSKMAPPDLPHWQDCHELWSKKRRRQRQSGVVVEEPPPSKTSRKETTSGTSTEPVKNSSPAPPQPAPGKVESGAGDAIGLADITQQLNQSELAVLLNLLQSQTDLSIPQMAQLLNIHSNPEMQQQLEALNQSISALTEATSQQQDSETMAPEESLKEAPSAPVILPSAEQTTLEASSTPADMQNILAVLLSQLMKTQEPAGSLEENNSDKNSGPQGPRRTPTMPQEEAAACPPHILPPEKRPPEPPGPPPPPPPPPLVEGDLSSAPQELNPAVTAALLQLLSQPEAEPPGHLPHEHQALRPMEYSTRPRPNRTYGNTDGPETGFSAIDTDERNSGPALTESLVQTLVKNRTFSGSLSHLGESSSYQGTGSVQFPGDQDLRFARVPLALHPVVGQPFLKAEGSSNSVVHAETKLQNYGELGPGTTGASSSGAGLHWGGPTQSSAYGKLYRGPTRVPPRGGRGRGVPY
Sequence of Cyclin-dependent kinase 13/Cyclin-K (Homo sapiens) (O75909 whole entry, looked up): as the sequence (O75909 whole entry, looked up) above
Sequence of Cyclin-dependent kinase 13/Cyclin-K (Homo sapiens) (Q14004 whole entry, looked up): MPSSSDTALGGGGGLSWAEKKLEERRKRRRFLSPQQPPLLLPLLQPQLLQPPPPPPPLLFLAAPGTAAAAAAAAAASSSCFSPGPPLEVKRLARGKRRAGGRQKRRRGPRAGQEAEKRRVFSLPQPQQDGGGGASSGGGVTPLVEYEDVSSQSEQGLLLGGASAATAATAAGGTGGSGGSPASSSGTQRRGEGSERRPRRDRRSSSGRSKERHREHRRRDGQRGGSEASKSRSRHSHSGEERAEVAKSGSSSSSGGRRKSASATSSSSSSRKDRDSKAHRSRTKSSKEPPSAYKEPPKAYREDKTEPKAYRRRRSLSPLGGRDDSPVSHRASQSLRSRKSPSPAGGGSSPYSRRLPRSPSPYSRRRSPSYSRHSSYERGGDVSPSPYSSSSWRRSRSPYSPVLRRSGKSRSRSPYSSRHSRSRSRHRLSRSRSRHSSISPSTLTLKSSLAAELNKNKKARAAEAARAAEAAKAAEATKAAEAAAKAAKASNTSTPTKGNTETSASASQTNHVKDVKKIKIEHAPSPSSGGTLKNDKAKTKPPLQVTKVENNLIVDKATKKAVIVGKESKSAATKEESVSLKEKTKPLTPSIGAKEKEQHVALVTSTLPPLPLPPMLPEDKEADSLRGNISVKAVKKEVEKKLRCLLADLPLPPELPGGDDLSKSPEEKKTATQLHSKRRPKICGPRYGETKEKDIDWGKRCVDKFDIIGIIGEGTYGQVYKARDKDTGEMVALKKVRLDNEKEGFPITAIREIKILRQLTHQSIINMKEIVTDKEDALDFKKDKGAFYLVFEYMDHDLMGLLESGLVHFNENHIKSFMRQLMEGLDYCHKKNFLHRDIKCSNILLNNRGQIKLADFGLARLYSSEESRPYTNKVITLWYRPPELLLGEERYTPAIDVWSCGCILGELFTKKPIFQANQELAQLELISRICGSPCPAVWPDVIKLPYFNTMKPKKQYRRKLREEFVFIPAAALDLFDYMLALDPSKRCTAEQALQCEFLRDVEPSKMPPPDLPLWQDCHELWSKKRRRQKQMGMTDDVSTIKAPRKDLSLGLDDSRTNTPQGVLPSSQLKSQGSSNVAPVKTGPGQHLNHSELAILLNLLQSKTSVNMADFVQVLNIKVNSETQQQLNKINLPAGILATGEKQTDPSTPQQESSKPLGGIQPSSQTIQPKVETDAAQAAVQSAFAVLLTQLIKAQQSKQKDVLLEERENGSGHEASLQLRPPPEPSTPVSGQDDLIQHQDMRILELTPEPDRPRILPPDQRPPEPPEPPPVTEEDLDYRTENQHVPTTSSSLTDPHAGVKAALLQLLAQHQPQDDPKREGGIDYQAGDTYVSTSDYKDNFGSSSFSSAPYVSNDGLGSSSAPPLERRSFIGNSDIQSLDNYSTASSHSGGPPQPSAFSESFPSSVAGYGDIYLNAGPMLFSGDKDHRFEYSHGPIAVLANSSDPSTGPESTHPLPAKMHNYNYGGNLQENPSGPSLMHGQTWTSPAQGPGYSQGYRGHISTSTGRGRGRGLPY

As a reminder, the Cmax is the highest concentration seen after dosing. Usually Tmax stands for the time at which the peak concentration occurs. A word on the inhibition: it is the change of the read-out against control, counted positive when it falls. Broadly, the AUC(0-t) is the area under the concentration-time curve up to a stated or last time point. On to `Cc1c(Br)c(Br)c2c3c1nc(N1CCNCC1)n3CCC2` [SEL-120 FREE BASE], for which the Ratio IC50 in [1] was found to be 0.1; in series [2], 2.9; in [9], 0.1; in [10] it was 0.1. The Cmax in series [3] was determined as 143 ng/mL; in series [5], 215 ng/mL. In series [4], the Tmax turned out to be 1.3 h. Moreover, the inhibition result in [6] was “Active”. The same compound yielded an AUC/dose in [7] of 685 ng·h/mL. Further, the AUC(0-t) at 24 h in [8] was 1350 ng·h/mL.

As a reminder, the bioavailability is the share of a dose that reaches the circulation, judged against a reference dose that is usually intravenous. As a reminder, the TGI is the reduction of tumour growth relative to the control group. As for `FC(F)c1c(Br)c(Br)cc2c1nc(N1CCNCC1)n2C1CCOCC1`, the inhibition was determined as 76.2% in series [11]; 57.4% in series [12]; 59.3% in [15]; 69.6% in series [22]; 58% in [23]; 2.33% in [26]. The inhibition worked out at 94.8% in [27] and 74.4% in series [30]. Moreover, the “Ratio IC50” value in series [13] stood at 7. In series [14], this compound returned a bioavailability of 67%. Also, the outcome in [16] was inactive. Moreover, the Activity entry in [17] was “Dose-Dependent Effect”; in [25] it was “Dose-Dependent Effect”; in series [31], “Non-Toxic”. Further, the AUC/dose in series [18] was 796 ng·h/mL; in series [20], 190 ng·h/mL. Further, the inhibition in vivo at 3 mg/kg in [19] is 66%. Besides, the Tmax in [21] worked out at 2 h. For the same compound, the Cmax in series [24] was 2280 ng/mL; in [28], 1100 ng/mL. Moreover, the TGI in [29] is recorded as 86%.
